Read-outs that look alike come from different tables or passages of the source.
Legend:
[1] = test system: ptosis (reserpine); assay: Test A: antagonism with respect to ptosis observed one hour after intravenous injection of reserpine in mice; type: in vivo; conditions: Mus musculus, 1 h, read-out: Test A ED 50
Procedure: Test A: Antagonism with respect to ptosis observed one hour after an intravenous injection (2 mg/kg) of reserpine given to mice according to the protocol described by GOURET C. and THOMAS J. in J. Pharmacol. (Paris, (1973), 4, 401.

[2] = test system: generalized trembling caused by dl-5-hydroxytryptophane; assay: Test B: potentialization in mice of generalized trembling caused by dl-5-hydroxytryptophane; type: in vivo; conditions: Mus musculus, read-out: Test B ED 50
Source text: Test B: Potentialization in mice of generalized trembling caused by an intraperitoneal injection of dl-5-hydroxytryptophane, according to the protocol described by GOURET C. and RAYNAUD G. in J. Pharmacol. (Paris), (1974), 5, 231.

[3] = Acute toxicity, LD 50 in mice, oral; conditions: mouse, in vivo
[4] = mice, oral, ptosis one hour after reserpine 2 mg/kg i.v.
[5] = mice, oral, dl-5-hydroxytryptophane i.p.

SMILES	ED50 [1, 4]	ED50 [2, 5]	LD50 [3]	ED50 ([1]; po)	ED50 ([2]; po)
COC[C@H]1C[C@@H](c2ccc(OCc3ccccc3)cc2)C(=O)O1 (relative stereo) [5 B]	11.5 mg/kg	15.5 mg/kg	–	–	–
COC[C@H]1C[C@H](c2ccc(OCc3ccc(F)c(Cl)c3)cc2)C(=O)O1 (relative stereo) [18 A]	23 mg/kg	16 mg/kg	–	–	–
N#Cc1cc(COc2ccc(C3CC(CO)OC3=O)cc2)cc([N+](=O)[O-])c1 (stereo not drawn) [Compound 16]	1.2 mg/kg	3.5 mg/kg	> 2000 mg/kg	–	–
COC[C@H]1C[C@H](c2ccc(OCc3cc(C#N)cc([N+](=O)[O-])c3)cc2)C(=O)O1 (relative stereo) [17 A]	5.5 mg/kg	6.4 mg/kg	> 2000 mg/kg	–	–
N#Cc1cccc(COc2ccc(C3CC(CO)OC3=O)cc2)c1 (stereo not drawn) [Compound 12]	10 mg/kg	16 mg/kg	–	–	–
C#CCN(C)C(C)Cc1ccccc1 (stereo not drawn) [reference compound]	–	–	520 mg/kg	9 mg/kg	3 mg/kg
COC[C@H]1C[C@@H](c2ccc(OCc3cc(C#N)cc([N+](=O)[O-])c3)cc2)C(=O)O1 (relative stereo) [17 B]	0.32 mg/kg	0.55 mg/kg	1700 mg/kg	–	–
COC[C@H]1C[C@@H](c2ccc(OCCCCCl)cc2)C(=O)O1 (relative stereo) [3 B]	3.6 mg/kg	1.7 mg/kg	2000 mg/kg	–	–
COCC1CC(c2ccc(OCc3cccnc3)cc2)C(=O)O1 (stereo not drawn) [Compound 15]	5.8 mg/kg	12 mg/kg	–	–	–
COC[C@H]1C[C@H](c2ccc(OCc3cccc(Cl)c3)cc2)C(=O)O1 (relative stereo) [10 A]	24 mg/kg	10 mg/kg	> 2000 mg/kg	–	–
COC[C@H]1C[C@H](c2ccc(OCc3cccc([N+](=O)[O-])c3)cc2)C(=O)O1 (relative stereo) [8 A]	6.2 mg/kg	4.4 mg/kg	> 2000 mg/kg	–	–
O=C1O[C@@H](CO)C[C@@H]1c1ccc(OCc2cccc([N+](=O)[O-])c2)cc1 (relative stereo) [6 A]	4.4 mg/kg	5.8 mg/kg	> 2000 mg/kg	–	–
COCC1C=C(c2ccc(OCc3cccc(Cl)c3)cc2)C(=O)O1 (stereo not drawn) [Compound 11]	2.3 mg/kg	1.6 mg/kg	> 2000 mg/kg	–	–
O=C1OC(CO)CC1c1ccc(OCC2CCCCC2)cc1 (stereo not drawn) [Compound 2]	5.5 mg/kg	9 mg/kg	> 2000 mg/kg	–	–
COCC1C=C(c2ccc(OCc3cccc(C#N)c3)cc2)C(=O)O1 (stereo not drawn) [Compound 14, 3-para(metacyanobenzyloxy)-phenyl-5-methoxymethyl-5H-furanone-2]	0.68 mg/kg	0.55 mg/kg	–	–	–
COC[C@H]1C[C@@H](c2ccc(OCc3cccc([N+](=O)[O-])c3)cc2)C(=O)O1 (relative stereo) [8 B]	0.58 mg/kg	0.29 mg/kg	2000 mg/kg	–	–

SMILES	ED50 [1, 4]	ED50 [2, 5]	LD50 [3]	ED50 ([1]; po)	ED50 ([2]; po)
COCC1C=C(c2ccc(OCc3ccccc3)cc2)C(=O)O1 (stereo not drawn) [Compound 20]	4.4 mg/kg	4 mg/kg	> 2000 mg/kg	–	–
COC[C@H]1C[C@@H](c2ccc(OCc3ccc(F)c(Cl)c3)cc2)C(=O)O1 (relative stereo) [18 B]	5.4 mg/kg	3.1 mg/kg	> 2000 mg/kg	–	–
O=C1OC(CO)CC1c1ccc(OCc2cccc([N+](=O)[O-])c2)cc1 (stereo not drawn) [Compound 6, 3-para(metanitrobenzyloxy)phenyl-5-hydroxymethyl-3H-dihydrofuranone-2]	1.4 mg/kg	1.5 mg/kg	–	–	–
COCC1C=C(c2ccc(OCc3ccc(F)c(Cl)c3)cc2)C(=O)O1 (stereo not drawn) [Compound 19]	2.1 mg/kg	2.4 mg/kg	> 2000 mg/kg	–	–
CC(=O)OC[C@H]1C[C@@H](c2ccc(OCc3cccc([N+](=O)[O-])c3)cc2)C(=O)O1 (relative stereo) [7 B]	2.5 mg/kg	3.2 mg/kg	> 2000 mg/kg	–	–
COC[C@@H]1C[C@@H](c2ccc(OCc3cccc(C#N)c3)cc2)C(=O)O1 (relative stereo) [13 A]	12 mg/kg	20 mg/kg	> 2000 mg/kg	–	–
COCC1C=C(c2ccc(OCc3cccc([N+](=O)[O-])c3)cc2)C(=O)O1 (stereo not drawn) [Compound 9]	0.22 mg/kg	–	> 2000 mg/kg	–	–
N[C@@H]1C[C@H]1c1ccccc1 (relative stereo) [TRANYLCYPROMINE, reference compound]	–	–	58 mg/kg	1.55 mg/kg	1.37 mg/kg
O=C1O[C@@H](CO)C[C@H]1c1ccc(OCc2cccc([N+](=O)[O-])c2)cc1 (relative stereo) [6 B]	1.6 mg/kg	2 mg/kg	> 2000 mg/kg	–	–
COCC1CC(c2ccc(OCCCCC#N)cc2)C(=O)O1 (stereo not drawn) [Compound 4]	0.3 mg/kg	0.19 mg/kg	> 2000 mg/kg	–	–
COC[C@@H]1C[C@H](c2ccc(OCc3cccc(C#N)c3)cc2)C(=O)O1 (relative stereo) [13 B]	0.9 mg/kg	1.7 mg/kg	> 2000 mg/kg	–	–
COC[C@H]1C[C@@H](c2ccc(OCc3cccc(Cl)c3)cc2)C(=O)O1 (relative stereo) [10 B]	15 mg/kg	10 mg/kg	> 2000 mg/kg	–	–
CC(=O)OC[C@H]1C[C@H](c2ccc(OCc3cccc([N+](=O)[O-])c3)cc2)C(=O)O1 (relative stereo) [7 A]	12.5 mg/kg	10 mg/kg	–	–	–
C#CCN(C)Cc1ccccc1 [PARGYLINE, reference compound]	34 mg/kg	48 mg/kg	480 mg/kg	–	–
O=C(CCNNC(=O)c1ccncc1)NCc1ccccc1 [NIALAMIDE, reference compound]	–	–	1100 mg/kg	4.5 mg/kg	5.2 mg/kg
CC(C)CCOc1ccc(C2CC(CO)OC2=O)cc1 (stereo not drawn) [Compound 1]	19 mg/kg	14 mg/kg	–	–	–
